Legend:
[1] = molecular target: T1, purified human Factor XIa (Homo sapiens, UniProt P03951); assay: Factor XIa enzyme inhibition assay (chromogenic substrate S-2366); assay type: biochemical; settings: substrate S-2366, pH 7.4
T1 construct: purchased Haematologic Technologies
Description: (§1) The effectiveness of compounds of the present invention as inhibitors of the coagulation Factors XIa, VIIa, IXa, Xa, XIIa, plasma kallikrein or thrombin, can be determined using a relevant purified serine protease, respectively, and an appropriate synthetic substrate. The rate of hydrolysis of the chromogenic or fluorogenic substrate by the relevant serine protease was measured both in the absence and presence of compounds of the present invention. […] A decrease in the rate of absorbance or fluorescence change in the presence of inhibitor is indicative of enzyme inhibition. Such methods are known to one skilled in the art. The results of this assay are expressed as the inhibitory constant, Ki.
Factor XIa determinations were made in 50 mM HEPES buffer at pH 7.4 containing 145 mM NaCl, 5 mM KCl, and 0.1% PEG 8000 (polyethylene glycol; JT Baker or Fisher Scientific). Determinations were made using purified human Factor XIa at a final concentration of 25-200 pM (Haematologic Technologies) and the synthetic substrate S-2366 (pyroGlu-Pro-Arg-pNA; Chromogenix or AnaSpec) at a concentration of 0.0002-0.001 M.
(§2) The Michaelis constant, Km, for substrate hydrolysis by each protease, was determined at 25° C. or 37° C. in the absence of inhibitor. Values of Ki were determined by allowing the protease to react with the substrate in the presence of the inhibitor. Reactions were allowed to go for periods of 20-180 minutes (depending on the protease) and the velocities (rate of absorbance or fluorescence change versus time) were measured. The following relationships were used to calculate Ki values: (Vmax*S)/(Km+S); (vo−vs)/vs=I/(Ki*(1+S/Km)) for a competitive inhibitor with one binding site; or vs/vo=A+((B−A)/(1+(IC50/(I))^n)); and Ki=IC50/(1+S/Km) for a competitive inhibitor where: […]

[2] = molecular target: T2, purified human plasma kallikrein (Homo sapiens, UniProt P03952); assay: Plasma kallikrein enzyme inhibition assay (chromogenic substrate S-2302); assay type: biochemical; settings: substrate S-2302, pH 7.5
T2 construct: Plasma prekallikrein is a zymogen of a trypsin-like serine protease; purchased Enzyme Research Laboratories
T2 sequence (P03952 391-638 limits assumed): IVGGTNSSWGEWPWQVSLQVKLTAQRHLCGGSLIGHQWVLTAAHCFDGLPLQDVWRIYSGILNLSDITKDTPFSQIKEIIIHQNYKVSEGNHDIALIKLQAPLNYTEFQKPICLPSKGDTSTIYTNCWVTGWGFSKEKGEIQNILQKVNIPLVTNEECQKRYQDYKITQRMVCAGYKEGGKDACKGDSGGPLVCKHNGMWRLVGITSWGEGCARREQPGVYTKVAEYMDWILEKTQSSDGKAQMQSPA
T2 sequence (P03952 20-390 partner limits assumed): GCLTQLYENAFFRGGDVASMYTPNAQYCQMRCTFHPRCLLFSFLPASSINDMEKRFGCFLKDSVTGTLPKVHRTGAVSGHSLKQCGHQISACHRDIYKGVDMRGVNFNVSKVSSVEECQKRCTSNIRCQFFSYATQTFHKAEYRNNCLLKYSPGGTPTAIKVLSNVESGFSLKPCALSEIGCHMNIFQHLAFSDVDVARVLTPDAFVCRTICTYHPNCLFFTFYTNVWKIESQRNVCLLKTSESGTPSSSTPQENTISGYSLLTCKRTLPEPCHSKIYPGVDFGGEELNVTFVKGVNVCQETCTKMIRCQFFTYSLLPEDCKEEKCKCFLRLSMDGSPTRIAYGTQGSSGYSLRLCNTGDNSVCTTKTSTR
Description: as §1
Plasma kallikrein determinations were made in 0.1 M sodium phosphate buffer at a pH of 7.5 containing 0.1-0.2 M sodium chloride and 0.5% PEG 8000. Determinations were made using purified human plasma kallikrein (Enzyme Research Laboratories) at a final assay concentration of 200 pM and the synthetic substrate S-2302 (H-(D)-Pro-Phe-Arg-pNA; Chromogenix) at a concentration of 0.00008-0.0004 M.
as §2

T1 sequence (P03951 388-625 limits assumed): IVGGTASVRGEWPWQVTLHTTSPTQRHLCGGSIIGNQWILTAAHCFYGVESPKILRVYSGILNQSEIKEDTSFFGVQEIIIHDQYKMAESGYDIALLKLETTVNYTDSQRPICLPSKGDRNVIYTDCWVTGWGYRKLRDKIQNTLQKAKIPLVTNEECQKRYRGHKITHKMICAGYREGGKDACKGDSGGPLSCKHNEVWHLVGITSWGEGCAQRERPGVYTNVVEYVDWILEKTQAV
T1 sequence (P03951 19-387 partner limits assumed): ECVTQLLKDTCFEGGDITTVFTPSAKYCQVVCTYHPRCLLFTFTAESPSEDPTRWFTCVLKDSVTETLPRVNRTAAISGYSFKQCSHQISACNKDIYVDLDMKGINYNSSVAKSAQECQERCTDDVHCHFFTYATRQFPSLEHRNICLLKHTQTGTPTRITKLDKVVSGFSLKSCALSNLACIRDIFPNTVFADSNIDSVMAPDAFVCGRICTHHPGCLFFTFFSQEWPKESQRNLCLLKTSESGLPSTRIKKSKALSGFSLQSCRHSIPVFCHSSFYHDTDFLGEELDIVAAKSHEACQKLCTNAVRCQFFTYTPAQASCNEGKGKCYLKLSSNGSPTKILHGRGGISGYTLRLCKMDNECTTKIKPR

`CC1NC(=O)[C@@H](N2CCC(c3cc(Cl)ccc3-n3cc(C(F)(F)F)nn3)=CC2=O)CCC[C@@H](C)C(=O)Nc2ccccc21` (single isomer, unassigned; diastereomer a) [Example 21] was tested, and the Ki [1] was 0.093 µM and the Ki [2] was 2.83 µM.

`CC1NC(=O)[C@@H](N2CCC(c3cc(Cl)ccc3-n3cc(C(F)(F)F)nn3)=CC2=O)CCC[C@@H](C)C(=O)Nc2ccccc21` (single isomer, unassigned; diastereomer b) [Example 22] was tested, and the Ki [1] was 3.68 µM and the Ki [2] was greater than 13 µM.

With `C[C@@H]1CCC[C@H](n2cnc(-c3cc(Cl)ccc3-n3cc(C(F)(F)F)nn3)cc2=O)C(=O)NCc2ccccc2NC1=O` [Example 11, (3R,7S)-7-(4-(5-Chloro-2-(4-(trifluoromethyl)-1H-1,2,3-triazol-1-yl)phenyl)-6-oxopyrimidin-1(6H)-yl)-3-methyl-4,5,6,7,9,10-hexahydrobenzo[b][1,5]-diazacyclododecine-2,8(1H, 3H)-dione] the Ki [1] was 0.0187 µM and the Ki [2] was 3.38 µM.

In the case of `C[C@@H]1CCC[C@H](n2cnc(-c3c(-n4cc(Cl)nn4)ccc(Cl)c3F)cc2=O)C(=O)NCc2ccccc2NC1=O` [Example 12, (3R,7S)-7-(4-(3-Chloro-6-(4-chloro-1H-1,2,3-triazol-1-yl)-2-fluorophenyl)-6-oxopyrimidin-1(6H)-yl)-3-methyl-4,5,6,7,9,10-hexahydrobenzo[b][1,5]diazacyclo-dodecine-2,8(1H,3H)-dione], the Ki [1] is reported as 0.002 µM and the Ki [2] is reported as 0.179 µM.

`C[C@@H]1CCC[C@H](n2cnc(-c3cc(Cl)ccc3-n3cc(Cl)nn3)cc2=O)C(=O)NCc2ccccc2NC1=O` [Example 13, (3R,7S)-7-(4-(5-Chloro-2-(4-chloro-1H-1,2,3-triazol-1-yl)phenyl)-6-oxopyrimidin-1(6H)-yl)-3-methyl-4,5,6,7,9,10-hexahydrobenzo[b][1,5]diazacyclo-dodecine-2,8(1H,3H)-dione] showed a Ki [1] of 0.0085 µM and a Ki [2] of 1.23 µM.

Molecule `C[C@@H]1CCC[C@H](n2cnc(-c3c(-n4cc(C(F)(F)F)nn4)ccc(Cl)c3F)cc2=O)C(=O)NCc2ccccc2NC1=O` [Example 14, (3R,7S)-7-(4-(3-Chloro-2-fluoro-6-(4-(trifluoromethyl)-1H-1,2,3-triazol-1-yl)phenyl)-6-oxopyrimidin-1(6H)-yl)-3-methyl-4,5,6,7,9,10-hexahydrobenzo[b][1,5]-diazacyclododecine-2,8(1H,3H)-dione] has a Ki [1] of 0.0043 µM and a Ki [2] of 0.733 µM.

For `C[C@@H]1CCC[C@H](n2cnc(-c3cc(Cl)ccc3-n3cc(C(F)F)nn3)cc2=O)C(=O)NCc2ccccc2NC1=O` [Example 15, (3R,7S)-7-(4-(5-Chloro-2-(4-(difluoromethyl)-1H-1,2,3-triazol-1-yl)phenyl)-6-oxopyrimidin-1(6H)-yl)-3-methyl-4,5,6,7,9,10-hexahydrobenzo[b][1,5]diazacyclo-dodecine-2,8(1H, 3H)-dione], the Ki [1] was 0.0348 µM and the Ki [2] was 3.36 µM.

`C[C@@H]1CCC[C@H](N2CCC(c3cc(Cl)ccc3-n3cc(Cl)nn3)=CC2=O)C(=O)NCc2ccccc2NC1=O` [Example 16, (3R,7S)-7-(4-(5-Chloro-2-(4-chloro-H-1,2,3-triazol-1-yl)phenyl)-2-oxo-5,6-dihydropyridin-1(2H)-yl)-3-methyl-4,5,6,7,9,10-hexahydrobenzo[b][1,5]diazacyclododecine-2,8(1H, 3H)-dione] showed a Ki [1] of 0.004 µM and a Ki [2] of 0.0607 µM.

For `C[C@@H]1CCC[C@H](N2CCC(c3c(F)ccc(Cl)c3F)=CC2=O)C(=O)NCc2ccccc2NC1=O` [Example 17, (3R,7S)-7-(4-(3-Chloro-2,6-difluorophenyl)-2-oxo-56-dihydropyridin-1(2H)-yl)-3-methy 1-4,5,6,7,9,10-hexahydrobenzo[b][1,5]diazacyclododecine-2,8(1H,3H)-dione], the Ki [1] was 0.112 µM and the Ki [2] was 0.558 µM.

Work on `C[C@@H]1CCC[C@H](N2CCC(c3cc(Cl)ccc3-n3cc(C(F)(F)F)nn3)=CC2=O)C(=O)NCc2ccccc2NC1=O` [Example 18] yielded a Ki [1] of 0.0031 µM and a Ki [2] of 0.103 µM.

`C[C@@H]1CCC[C@H](n2ccc(-c3cc(Cl)ccc3-n3cc(Cl)nn3)cc2=O)C(=O)NCc2ccccc2NC1=O` [Example 18] was tested, and the Ki [1] was 0.0101 µM and the Ki [2] was 0.259 µM.

Molecule `C[C@@H]1CCC[C@H](n2cnc(-c3cc(Cl)ccc3-n3cc(C(F)(F)F)nn3)cc2=O)C(=O)NCc2cc(F)ccc2NC1=O` [Example 19, (3R,7S)-7-(4-(5-Chloro-2-(4-(trifluoromethyl)-1H-1,2,3-triazol-1-yl)phenyl)-6-oxopyrimidin-1(6H)-yl)-12-fluoro-3-methyl-4,5,6,7,9,10-hexahydrobenzo[b][1,5]diazacyclododecine-2,8(1H,3H)-dione] has a Ki [1] of 0.0187 µM and a Ki [2] of no less than 13 µM.

`C[C@@H]1CCC[C@H](N2CCC(c3cc(Cl)ccc3-n3cc(C(F)(F)F)nn3)=CC2=O)C(=O)NCc2cc(F)ccc2NC1=O` [Example 20, (3R,7S)-7-(4-(5-Chloro-2-(4-(trifluoromethyl)-1H-1,2,3-triazol-1-yl)phenyl)-2-oxo-5,6-dihydropyridin-1(2H)-yl)-12-fluoro-3-methyl-4,5,6,7,9,10-hexahydrobenzo[b][1,5]diazacyclododecine-2,8(1H,3H)-dione] showed a Ki [1] of 0.007 µM and a Ki [2] of 0.268 µM.

For `C[C@@H]1CCC[C@H](NC(=O)c2cn(-c3cccc(Cl)c3F)nn2)C(=O)NCc2ccccc2NC1=O` [Example 23, 1-(3-chloro-2-fluorophenyl)-N-((3R,7S)-3-methyl-2,8-dioxo-1,2,3,4,5,6,7,8,9,10-decahydrobenzo[b][1,5]diazacyclododecin-7-yl)-1H-1,2,3-triazole-4-carboxamide], the Ki [1] was 8.73 µM and the Ki [2] was no less than 13 µM.

Molecule `Cc1c(C(=O)N[C@H]2CCC[C@@H](C)C(=O)Nc3ccccc3CNC2=O)ncn1-c1cccc(Cl)c1F` [Example 24, 1-(3-chloro-2-fluorophenyl)-5-methyl-N-((3R,7S)-3-methyl-2,8-dioxo-1,2,3,4,5,6,7,8,9,10-decahydrobenzo[b][1,5]diazacyclododecin-7-yl)-1H-imidazole-4-carboxamide] has a Ki [1] of 7.41 µM and a Ki [2] of 4.36 µM.

For `O=C1CCCCC[C@H](NC(=O)c2cn(-c3cccc(Cl)c3F)nn2)C(=O)Nc2ccccc2N1` [Example 25, (S)-1-(3-chloro-2-fluorophenyl)-N-(2,9-dioxo-1,2,3,4,5,6,7,8,9,10-decahydrobenzo[b][1,4]diazacyclododecin-3-yl)-1H-1,2,3-triazole-4-carboxamide], the Ki [1] was 6 µM and the Ki [2] was greater than 13 µM.

Molecule `Cc1c(C(=O)N[C@H]2CCCCCC(=O)Nc3cc(C(=O)O)ccc3NC2=O)cnn1-c1cccc(Cl)c1F` [Example 26, (S)-3-(1-(3-chloro-2-fluorophenyl)-5-methyl-1H-pyrazole-4-carboxamido)-2,9-dioxo-1,2,3,4,5,6,7,8,9,10-decahydrobenzo[b][1,4]diazacyclododecine-12-carboxylic acid] has a Ki [1] of 1.74 µM and a Ki [2] of 0.765 µM.

In the case of `COC(=O)c1ccc2c(c1)NC(=O)CCCCC[C@H](n1cnc(-c3cc(Cl)ccc3-n3cc(C(F)(F)F)nn3)cc1=O)C(=O)N2` [Example 27, methyl (S)-3-(4-(5-chloro-2-(4-(trifluoromethyl)-1H-1,2,3-triazol-1-yl)phenyl)-6-oxopyrimidin-1(6H)-yl)-2,9-dioxo-1,2,3,4,5,6,7,8,9,10-decahydrobenzo[b][1,4]diazacyclododecine-12-carboxylate], the Ki [1] is reported as 0.561 µM and the Ki [2] is reported as greater than 13 µM.

Molecule `O=C1CCCCC[C@H](n2cnc(-c3cc(Cl)ccc3-n3cc(C(F)(F)F)nn3)cc2=O)C(=O)Nc2ccc(C(=O)O)cc2N1` [Example 28, (S)-3-(4-(5-chloro-2-(4-(trifluoromethyl)-1H-1,2,3-triazol-1-yl)phenyl)-6-oxopyrimidin-1(6H)-yl)-2,9-dioxo-1,2,3,4,5,6,7,8,9,10-decahydrobenzo[b][1,4]diazacyclododecine-12-carboxylic acid] has a Ki [1] of 0.173 µM and a Ki [2] of 11.6 µM.
